This is an account of results in US20090105266A1, “Organic compounds” (priority 2007, published 2009).

Molecules are shown by their SMILES.

The target in the experiment is T1, mGluR5 (Homo sapiens, UniProt P41594).
T1 construct: expressed in transfected cells
The experiment can be described thus: inhibition of the glutamate (agonist) induced elevation of the inositol phosphate turnover. The format is cell-based. The note with it: inhibition of glutamate induced elevation of inositol phosphate turnover at 0.1 μM. The source says: This can be determined in vitro for example at recombinant human metabotropic glutamate receptors, especially PLC-coupled subtypes thereof such as mGluR5, using different procedures like, for example, measurement of the inhibition of the agonist induced elevation of intracellular Ca^2+ concentration in accordance with L. P. Daggett et al., Neuropharm. Vol. 34, pages 871-886 (1995), P. J. Flor et al., J. Neurochem. Vol. 67, pages 58-63 (1996) or by determination to what extent the agonist induced elevation of the inositol phosphate turnover is inhibited as described by T. Knoepfel et al., Eur. J. Pharmacol. Vol. 288, pages 389-392 (1994), L. P. Daggett et al., Neuropharm. Vol. 67, pages 58-63 (1996) and references cited therein. Isolation and expression of human mGluR subtypes are described in U.S. Pat. No. 5,521,297. Selected agents of the invention show IC50 values for the inhibition of the agonist (e.g. glutamate or quisqualate) induced elevation of intracellular Ca2+ concentration or the agonist (e.g. glutamate or quisqualate) induced inositol phosphate turnover, measured in recombinant cells expressing hmGluR^5a of about 0.1 nM to about 50 μM.
Activity of compounds of the present invention was examined by determination to what extent the agonist induced elevation of the inositol phosphate turnover is inhibited as described by T. Knoepfel et al., Eur. J. Pharmacol. Vol. 288, pages 389-392 (1994), L. P. Daggett et al., Neuropharm. Vol. 67, pages 58-63 (1996) and references cited therein.
The table below represents percentages of inhibition of the glutamate induced elevation of the inositol phosphate turnover at a concentration of 0.1 μM.

T1 sequence (P41594 21-1180 isoform P41594-2 limits assumed): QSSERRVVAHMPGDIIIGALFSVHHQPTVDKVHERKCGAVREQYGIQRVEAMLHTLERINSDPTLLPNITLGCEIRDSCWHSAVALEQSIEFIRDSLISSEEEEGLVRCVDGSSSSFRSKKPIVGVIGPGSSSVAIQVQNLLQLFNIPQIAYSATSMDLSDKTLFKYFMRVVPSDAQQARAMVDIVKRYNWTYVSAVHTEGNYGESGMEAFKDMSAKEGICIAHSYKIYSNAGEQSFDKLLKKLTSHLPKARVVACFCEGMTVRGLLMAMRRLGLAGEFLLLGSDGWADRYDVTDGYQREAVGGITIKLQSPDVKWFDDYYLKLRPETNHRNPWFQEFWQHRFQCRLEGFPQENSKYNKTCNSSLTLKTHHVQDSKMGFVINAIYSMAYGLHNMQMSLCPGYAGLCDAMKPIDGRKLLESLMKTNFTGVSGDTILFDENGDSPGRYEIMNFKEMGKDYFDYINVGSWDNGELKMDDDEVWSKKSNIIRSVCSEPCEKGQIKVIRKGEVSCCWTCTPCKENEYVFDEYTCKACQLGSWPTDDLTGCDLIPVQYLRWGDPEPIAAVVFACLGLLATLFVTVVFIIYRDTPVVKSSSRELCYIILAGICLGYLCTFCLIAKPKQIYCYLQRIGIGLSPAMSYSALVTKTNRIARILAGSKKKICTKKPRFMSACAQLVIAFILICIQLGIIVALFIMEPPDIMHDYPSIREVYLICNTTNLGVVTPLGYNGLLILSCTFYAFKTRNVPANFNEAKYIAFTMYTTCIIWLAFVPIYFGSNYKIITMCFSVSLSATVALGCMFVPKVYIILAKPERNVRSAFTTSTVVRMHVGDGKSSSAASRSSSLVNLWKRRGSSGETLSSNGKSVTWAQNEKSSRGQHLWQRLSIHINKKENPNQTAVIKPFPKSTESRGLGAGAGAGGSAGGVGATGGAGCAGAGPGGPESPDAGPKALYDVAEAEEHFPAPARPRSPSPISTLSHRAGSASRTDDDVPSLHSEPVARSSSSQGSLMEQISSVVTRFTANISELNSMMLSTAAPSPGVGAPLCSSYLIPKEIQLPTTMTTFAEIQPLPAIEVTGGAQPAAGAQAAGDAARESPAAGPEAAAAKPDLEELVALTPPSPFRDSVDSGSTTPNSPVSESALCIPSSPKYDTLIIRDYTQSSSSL

Consider `CCCCCn1c(-c2cnc(Nc3ccc(C)nc3)c(Cl)c2)nc2ccccc21` [Example 19, [3-Chloro-5-(1-pentyl-1H-benzoimidazol-2-yl)-pyridin-2-yl]-(6-methyl-pyridin-3-yl)-amine], for which the inhibition at 0.1 µM was determined as 57%.

Consider `Cc1ccc(Nc2ncc(-c3nc4ccccc4n3CC(C)C)cc2Cl)cn1` [Example 20, [3-Chloro-5-(1-isobutyl-1H-benzoimidazol-2-yl)-pyridin-2-yl]-(6-methyl-pyridin-3-yl)-amine], for which the inhibition at 0.1 µM was 98%.

Turning to `CCCn1c(-c2cnc(Nc3ccc(C)nc3)c(Cl)c2)nc2cc(C(F)(F)F)ccc21` [Example 21, [3-Chloro-5-(1-propyl-5-trifluoromethyl-1H-benzoimidazol-2-yl)-pyridin-2-yl]-(6-methyl-pyridin-3-yl)-amine], the inhibition at 0.1 µM came to 65%.

In the case of `CCCn1c(-c2cnc(Nc3ccc(C)nc3)c(Cl)c2)nc2cc(C)ccc21` [Example 22, [3-Chloro-5-(5-methyl-1-propyl-1H-benzoimidazol-2-yl)-pyridin-2-yl]-(6-methyl-pyridin-3-yl)-amine], the inhibition at 0.1 µM amounted to 97%.

For `CCCn1c(-c2cnc(Nc3ccc(C)nc3)c(Cl)c2)nc2ccc(C)cc21` [Example 23, [3-Chloro-5-(6-methyl-1-propyl-1H-benzoimidazol-2-yl)-pyridin-2-yl]-(6-methyl-pyridin-3-yl)-amine], the inhibition at 0.1 µM was found to be 84%.

As to `CCCn1c(-c2cnc(Nc3ccc(C)nc3)c(Cl)c2)nc2cccc(C)c21` [Example 24, [3-Chloro-5-(7-methyl-1-propyl-1H-benzoimidazol-2-yl)-pyridin-2-yl]-(6-methyl-pyridin-3-yl)-amine], the inhibition at 0.1 µM turned out to be 101%.

Turning to `CCCn1c(-c2cnc(Nc3ccc(C)nc3)c(Cl)c2)nc2c(C)cccc21` [Example 25, [3-Chloro-5-(4-methyl-1-propyl-1H-benzoimidazol-2-yl)-pyridin-2-yl]-(6-methyl-pyridin-3-yl)-amine], the inhibition at 0.1 µM is 97%.

`CCCn1c(-c2cnc(Nc3ccc(C)nc3)c(Cl)c2)nc2ccc(C)c(C)c21` [Example 26, [3-Chloro-5-(6,7-dimethyl-1-propyl-1H-benzoimidazol-2-yl)-pyridin-2-yl]-(6-methyl-pyridin-3-yl)-amine]: the inhibition at 0.1 µM was 98%.

`CCCn1c(-c2cnc(Nc3ccc(C)nc3)c(Cl)c2)nc2c(C)ccc(C)c21` [Example 29, [3-Chloro-5-(4,7-dimethyl-1-propyl-1H-benzoimidazol-2-yl)-pyridin-2-yl]-(6-methyl-pyridin-3-yl)-amine]: the inhibition at 0.1 µM was found to be 99%.

Take `CCCn1c(-c2cnc(Nc3ccc(C)nc3)c(Cl)c2)nc2cc(F)c(F)cc21` [Example 30, [3-Chloro-5-(5,6-difluoro-1-propyl-1H-benzoimidazol-2-yl)-pyridin-2-yl]-(6-methyl-pyridin-3-yl)-amine]: the inhibition at 0.1 µM turned out to be 99%.

As for `Cc1ccc(Nc2ncc(-c3nc4cccc5c4n3CCC5)cc2Cl)cn1` [Example 31, [3-Chloro-5-(5,6-dihydro-4H-imidazo[4,5,1-ij]quinolin-2-yl)-pyridin-2-yl]-(6-methyl-pyridin-3-yl)-amine], the inhibition at 0.1 µM was determined as 90%.

With `CCCn1c(-c2cnc(Nc3ccc(C)nc3)c(Cl)c2)nc2cc(I)cc(Cl)c21` [Example 34b, [3-Chloro-5-(7-chloro-5-iodo-1-propyl-1H-benzoimidazol-2-yl)-pyridin-2-yl]-(6-methyl-pyridin-3-yl)-amine], the inhibition at 0.1 µM turned out to be 97%.

With `CCCn1c(-c2cnc(Nc3ccc(C)nc3)c(Cl)c2)nc2cc(Cl)ccc21` [Example 45, [3-Chloro-5-(5-chloro-1-propyl-1H-benzoimidazol-2-yl)-pyridin-2-yl]-(6-methyl-pyridin-3-yl)-amine], the inhibition at 0.1 µM was determined as 91%.

With `CCCn1c(-c2cnc(Nc3ccc(C)nc3)c(Cl)c2)nc2c(Cl)cccc21` [Example 47, [3-Chloro-5-(4-chloro-1-propyl-1H-benzoimidazol-2-yl)-pyridin-2-yl]-(6-methyl-pyridin-3-yl)-amine], the inhibition at 0.1 µM came out at 100%.

Turning to `CCCn1c(-c2cnc(Nc3ccc(C)nc3)c(Cl)c2)nc2cccc(Cl)c21` [Example 48, [3-Chloro-5-(7-chloro-1-propyl-1H-benzoimidazol-2-yl)-pyridin-2-yl]-(6-methyl-pyridin-3-yl)-amine], the inhibition at 0.1 µM was 101%.

Consider `CCCn1c(-c2cnc(Nc3ccc(Cl)cc3)c(Cl)c2)nc2cccc(Cl)c21` [Example 52, [3-Chloro-5-(7-chloro-1-propyl-1H-benzoimidazol-2-yl)-pyridin-2-yl]-(4-chloro-phenyl)-amine], for which the inhibition at 0.1 µM is 99%.

Consider `CCCn1c(-c2cnc(Nc3ccccc3F)c(Cl)c2)nc2cccc(Cl)c21` [Example 53, [3-Chloro-5-(7-chloro-1-propyl-1H-benzoimidazol-2-yl)-pyridin-2-yl]-(2-fluoro-phenyl)-amine], for which the inhibition at 0.1 µM is 95%.

On to `CCCn1c(-c2cnc(Nc3ccc(F)cc3)c(Cl)c2)nc2cccc(Cl)c21` [Example 54, [3-Chloro-5-(7-chloro-1-propyl-1H-benzoimidazol-2-yl)-pyridin-2-yl]-(4-fluoro-phenyl)-amine], for which the inhibition at 0.1 µM was 97%.

As to `CCCn1c(-c2cnc(Nc3cccc(F)c3)c(Cl)c2)nc2cccc(Cl)c21` [Example 55, [3-Chloro-5-(7-chloro-1-propyl-1H-benzoimidazol-2-yl)-pyridin-2-yl]-(3-fluoro-phenyl)-amine], the inhibition at 0.1 µM came out at 63%.

For `CCCn1c(-c2cnc(Nc3ccc(C#N)cc3)c(Cl)c2)nc2cccc(Cl)c21` [Example 56, 4-[3-Chloro-5-(7-chloro-1-propyl-1H-benzoimidazol-2-yl)-pyridin-2-ylamino]-benzonitrile], the inhibition at 0.1 µM was determined as 100%.

In the case of `CCCn1c(-c2cnc(Nc3ccc(F)c(F)c3)c(Cl)c2)nc2cccc(Cl)c21` [Example 57, [3-Chloro-5-(7-chloro-1-propyl-1H-benzoimidazol-2-yl)-pyridin-2-yl]-(3,4-difluoro-phenyl)-amine], the inhibition at 0.1 µM was found to be 93%.

Turning to `CCCn1c(-c2cnc(Nc3cccc(F)c3F)c(Cl)c2)nc2cccc(Cl)c21` [Example 58, [3-Chloro-5-(7-chloro-1-propyl-1H-benzoimidazol-2-yl)-pyridin-2-yl]-(2,3-difluoro-phenyl)-amine], the inhibition at 0.1 µM is 40%.

In the case of `CCCn1c(-c2cnc(Nc3ccncc3)c(Cl)c2)nc2cccc(Cl)c21` [Example 59, [3-Chloro-5-(7-chloro-1-propyl-1H-benzoimidazol-2-yl)-pyridin-2-yl]-pyridin-4-yl-amine], the inhibition at 0.1 µM was determined as 51%.

For `CCCn1c(-c2cnc(Nc3ccc(C)nn3)c(Cl)c2)nc2cccc(Cl)c21` [Example 60, [3-Chloro-5-(7-chloro-1-propyl-1H-benzoimidazol-2-yl)-pyridin-2-yl]-(6-methyl-pyridazin-3-yl)-amine], the inhibition at 0.1 µM is 87%.

In the case of `CCCn1c(-c2cnc(Nc3ccc4nccnc4c3)c(Cl)c2)nc2cccc(Cl)c21` [Example 61, [3-Chloro-5-(7-chloro-1-propyl-1H-benzoimidazol-2-yl)-pyridin-2-yl]-quinoxalin-6-yl-amine], the inhibition at 0.1 µM was determined as 96%.

Consider `CCCn1c(-c2cnc(Nc3cnc(C)cn3)c(Cl)c2)nc2cccc(Cl)c21` [Example 62, [3-Chloro-5-(7-chloro-1-propyl-1H-benzoimidazol-2-yl)-pyridin-2-yl]-(5-methyl-pyrazin-2-yl)-amine], for which the inhibition at 0.1 µM is 99%.

For the molecule `CCCn1c(-c2cnc(Nc3cnc4ccccc4c3)c(Cl)c2)nc2cccc(Cl)c21` [Example 63, [3-Chloro-5-(7-chloro-1-propyl-1H-benzoimidazol-2-yl)-pyridin-2-yl]-quinolin-3-yl-amine], the inhibition at 0.1 µM was 28%.

For `CCCn1c(-c2cnc(Nc3ccc4ncccc4c3)c(Cl)c2)nc2cccc(Cl)c21` [Example 64, [3-Chloro-5-(7-chloro-1-propyl-1H-benzoimidazol-2-yl)-pyridin-2-yl]-quinolin-6-yl-amine], the inhibition at 0.1 µM stood at 17%.

With `CCCn1c(-c2cnc(Nc3ccc(C)cc3)c(Cl)c2)nc2ccc(F)cc21` [Example 65, [3-Chloro-5-(6-fluoro-1-propyl-1H-benzoimidazol-2-yl)-pyridin-2-yl]-p-tolyl-amine], the inhibition at 0.1 µM came to 92%.

As for `CCCn1c(-c2cnc(Nc3ccc(OC)cc3)c(Cl)c2)nc2ccc(F)cc21` [Example 66, [3-Chloro-5-(6-fluoro-1-propyl-1H-benzoimidazol-2-yl)-pyridin-2-yl]-(4-methoxy-phenyl)-amine], the inhibition at 0.1 µM came to 93%.

Regarding `CCCn1c(-c2cnc(Nc3c(F)cccc3F)c(Cl)c2)nc2cccc(Cl)c21` [Example 67, [3-Chloro-5-(7-chloro-1-propyl-1H-benzoimidazol-2-yl)-pyridin-2-yl]-(2,6-difluoro-phenyl)-amine], the inhibition at 0.1 µM is 42%.
